For series [1], the system named is LoVo colorectal cancer cell line. Put plainly: LoVo growth inhibition, ceralasertib alone or with carboplatin. Type of series: cell-based, human. The settings on record: Homo sapiens, LoVo, read-out: GI50 (50% growth inhibition).
The next series relates to patients. As to conditions: cited from earlier work.

Where two headings read alike, the source gives them in different places.

The source of these data is paper PMC9401487 (Clinical Cancer Research, 2021).

The term GI50 denotes the concentration at which growth is held to half of that of the control.

Regarding `CNCc1ccc(-c2cc(-c3nc(-c4ccc(S(=O)(=O)C(C)C)cc4)cnc3N)on2)cc1` [berzosertib], the GI50 in series [1] worked out at 90 nM. For the same compound, the Tolerability result is on record as “tolerated” in the series with patients (90 mg/m^2 + carboplatin AUC5); “not tolerated” with patients (240 mg/m^2 days 1 and 8 every 21 days + carboplatin AUC5 day 1). In the series with patients (240 mg/m^2 + carboplatin AUC5, 3 patients), the “Patients with grade 3/4 neutropenia” value is on record as 3 patients.
